Reference: patent US10611740B2, “Aryl dihydro-2H-benzo[b][1,4]oxazine sulfonamide and related compounds for use as agonists of RORγ and the treatment of disease” (Lycera Corporation, priority 2015, dated 2020)

How the values were obtained:
RORγ-LBD = target: T1, RORγ-LBD (Homo sapiens, UniProt P51449); experiment: RORγ-Ligand Binding Domain (LBD) TR-FRET Assay; type: biochemical;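 on TR-FRET Assay Max Response: 665/615 nm ratio relative to signal without ursolic acid or compound set at 100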
T1 construct: made in house; host or cells: SF9 cells (baculovirus)
T1 sequence (P51449 269-508 limits assumed): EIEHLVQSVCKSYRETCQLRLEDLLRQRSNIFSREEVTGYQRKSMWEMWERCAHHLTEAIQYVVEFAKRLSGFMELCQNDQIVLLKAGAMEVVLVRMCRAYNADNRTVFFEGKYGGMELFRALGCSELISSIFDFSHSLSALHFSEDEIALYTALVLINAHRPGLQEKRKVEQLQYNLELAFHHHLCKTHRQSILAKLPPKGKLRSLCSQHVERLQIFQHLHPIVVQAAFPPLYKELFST
Outline: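 Compounds, diluted in DMSO and then in assay buffer (1% DMSO final), were combined with His-tagged RORγ-LBD lysate at roughly 3 nM final and a 200 nM biotinylated SRC1 LXXLL peptide. Ursolic acid was included at 2 μM final. Coactivator recruitment was detected by TR-FRET.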

Gal4-RORγ-LBD = target: T2, Gal4-RORγ-LBD (Homo sapiens, UniProt P51449); experiment: Gal4-RORγ Luciferase Reporter Assay in HEK-293T Cells; type: cell-based; conditions: HEK-293 cells, luciferase reporter, with 2 μM ursolic acid
T2 construct: expressed in transfected cells; host or cells: HEK-293 cells (pcDNA3.1neo plasmid)
T2 sequence (P51449 269-508 limits assumed): T1 sequence (P51449 269-508 limits assumed)
Outline: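 HEK-293 cells were transiently co-transfected with Gal4-RORγ-LBD and pGL4.31 Gal4-luciferase, with ursolic acid added at 2 μM final. Compounds were incubated overnight at 37° C. in 0.2% DMSO and luminescence read with One-Glo. Max Response is the upper plateau of a 4-parameter logistic fit, with signal lacking ursolic acid or compound set to 100.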

SMILES	EC50 (RORγ-LBD)	EC50 (Gal4-RORγ-LBD)	TR-FRET Assay Max Response (RORγ-LBD)	Gal4-RORγ Assay Max Response (Gal4-RORγ-LBD)
O=C(O)CC[C@H]1CN(S(=O)(=O)c2cccc(C(F)(F)F)c2)c2cc(-c3cccc(OCCO)c3)ccc2O1 [Compound 4AB, (S)-3-(6-(3-(2-hydroxyethoxy)-phenyl)-4-((3-(trifluoromethyl)phenyl)-sulfonyl)-3,4-dihydro-2H-benzo[b][1,4]oxazin-2-yl)propanoic acid]	> 10000 nM	> 10000 nM		
O=C(O)CC[C@H]1CN(S(=O)(=O)c2cccc(C(F)(F)F)c2)c2cc(-c3cccnc3-c3ccccc3)ccc2O1 [Compound 4AD, (S)-3-(6-(2-phenylpyridin-3-yl)-4-((3-(trifluoromethyl)-phenyl)sulfonyl)-3,4-dihydro-2H-benzo[b][1,4]oxazin-2-yl)propanoic acid]	> 10000 nM	> 10000 nM		
Cc1c(F)cc(F)cc1-c1ccc2c(c1)N(S(=O)(=O)c1cccc(C(F)(F)F)c1)C[C@H](CCC(=O)O)O2 [Compound 4AJ, (S)-3-(6-(3,5-difluoro-2-methylphenyl)-4-((3-(trifluoromethyl)phenyl)-sulfonyl)-3,4-dihydro-2H-benzo[b][1,4]oxazin-2-yl)propanoic acid]	< 500 nM	< 500 nM	**** (The symbol “****” indicates a value greater than 200)	** (The symbol “**” indicates a value in the range of greater than 90 to 150)
O=C(O)CC[C@H]1CN(S(=O)(=O)c2cccc(C(F)(F)F)c2)c2cc(-c3cc(F)cc(F)c3F)ccc2O1 [Compound 4AK, (S)-3-(4-((3-(trifluoromethyl)-phenyl)sulfonyl)-6-(2,3,5-trifluorophenyl)-3,4-dihydro-2H-benzo[b][1,4]oxazin-2-yl)propanoic acid]	< 500 nM	< 500 nM	**** (The symbol “****” indicates a value greater than 200)	** (The symbol “**” indicates a value in the range of greater than 90 to 150)
CN(C)c1cncc(-c2ccc3c(c2)N(S(=O)(=O)c2cccc(C(F)(F)F)c2)C[C@H](CCC(=O)O)O3)n1 [Compound 4AL, (S)-3-(6-(6-(dimethylamino)-pyrazin-2-yl)-4-((3-(trifluoromethyl)phenyl)-sulfonyl)-3,4-dihydro-2H-benzo[b][1,4]oxazin-2-yl)propanoic acid]	< 500 nM	< 500 nM	**** (The symbol “****” indicates a value greater than 200)	** (The symbol “**” indicates a value in the range of greater than 90 to 150)
CNc1cccc(-c2ccc3c(c2)N(S(=O)(=O)c2cccc(C(F)(F)F)c2)C[C@H](CCC(=O)O)O3)n1 [Compound 4AM, (S)-3-(6-(6-(methylamino)-pyridin-2-yl)-4-((3-(trifluoromethyl)phenyl)-sulfonyl)-3,4-dihydro-2H-benzo[b][1,4]oxazin-2-yl)propanoic acid]	< 500 nM	500 to 5000 nM	**** (The symbol “****” indicates a value greater than 200)	** (The symbol “**” indicates a value in the range of greater than 90 to 150)
Cc1cc(-c2ccc3c(c2)N(S(=O)(=O)c2cccc(C(F)(F)F)c2)C[C@H](CCC(=O)O)O3)nc(N(C)C)c1 [Compound 4AN, (S)-3-(6-(6-(dimethylamino)-4-methylpyridin-2-yl)-4-((3-(trifluoromethyl)phenyl)sul-fonyl)-3,4-dihydro-2H-benzo[b][1,4]oxazin-2-yl)propanoic acid]	< 500 nM	< 500 nM	**** (The symbol “****” indicates a value greater than 200)	** (The symbol “**” indicates a value in the range of greater than 90 to 150)
Cc1ccc(N(C)C)nc1-c1ccc2c(c1)N(S(=O)(=O)c1cccc(C(F)(F)F)c1)C[C@H](CCC(=O)O)O2 [Compound 4AO, (S)-3-(6-(6-(dimethylamino)-3-methylpyridin-2-yl)-4-((3-(trifluoromethyl)phenyl)sul-fonyl)-3,4-dihydro-2H-benzo[b][1,4]oxazin-2-yl)propanoic acid]	500 to 5000 nM	> 10000 nM	* (The symbol “*” indicates a value in the range of 25 to 90)	* (The symbol “*” indicates a value in the range of 25 to 90)
COc1cc(-c2ccc3c(c2)N(S(=O)(=O)c2cccc(C(F)(F)F)c2)C[C@H](CCC(=O)O)O3)nc(N(C)C)c1 [Compound 4AP, (S)-3-(6-(6-(dimethylamino)-4-methoxypyridin-2-yl)-4-((3-(trifluoromethyl)phenyl)sul-fonyl)-3,4-dihydro-2H-benzo[b][1,4]oxazin-2-yl)propanoic acid]	< 500 nM	< 500 nM	**** (The symbol “****” indicates a value greater than 200)	** (The symbol “**” indicates a value in the range of greater than 90 to 150)
O=C(O)CC[C@H]1CN(S(=O)(=O)c2cccc(C(F)(F)F)c2)c2cc(-c3cc(Cl)cc(F)c3F)ccc2O1 [Compound 4AQ, (S)-3-(6-(5-chloro-2,3-difluorophenyl)-4-((3-(trifluoromethyl)phenyl)sul-fonyl)-3,4-dihydro-2H-benzo[b][1,4]oxazin-2-yl)propanoic acid]	< 500 nM	< 500 nM	**** (The symbol “****” indicates a value greater than 200)	** (The symbol “**” indicates a value in the range of greater than 90 to 150)

The next lines start with results.

EC50 (RORγ-LBD)	EC50 (Gal4-RORγ-LBD)	SMILES	TR-FRET Assay Max Response (RORγ-LBD)	Gal4-RORγ Assay Max Response (Gal4-RORγ-LBD)
< 500 nM	< 500 nM	CCOc1cccc(-c2ccc3c(c2)N(S(=O)(=O)c2cccc(C(F)(F)F)c2)C[C@H](CCC(=O)O)O3)c1F [Compound 4AA, (S)-3-(6-(3-ethoxy-2-fluorophenyl)-4-((3-(trifluoromethyl)phenyl)sulfonyl)-3,4-dihydro-2H-benzo[b][1,4]oxazin-2-yl)propanoic acid]	**** (The symbol “****” indicates a value greater than 200)	** (The symbol “**” indicates a value in the range of greater than 90 to 150)
< 500 nM	< 500 nM	CC(C)n1cc(-c2ccc3c(c2)N(S(=O)(=O)c2cccc(C(F)(F)F)c2)C[C@H](CCC(=O)O)O3)cn1 [Compound 4AC, (S)-3-(6-(1-isopropyl-1H-pyrazol-4-yl)-4-((3-(trifluoromethyl)phenyl)sulfonyl)-3,4-dihydro-2H-benzo[b][1,4]oxazin-2-yl)propanoic acid]	**** (The symbol “****” indicates a value greater than 200)	* (The symbol “*” indicates a value in the range of 25 to 90)
< 500 nM	500 to 5000 nM	Cc1ncccc1-c1ccc2c(c1)N(S(=O)(=O)c1cccc(C(F)(F)F)c1)C[C@H](CCC(=O)O)O2 [Compound 4AE, (S)-3-(6-(2-methylpyridin-3-yl)-4-((3-(trifluoromethyl)-phenyl)sulfonyl)-3,4-dihydro-2H-benzo[b][1,4]oxazin-2-yl)propanoic acid]	**** (The symbol “****” indicates a value greater than 200)	** (The symbol “**” indicates a value in the range of greater than 90 to 150)
< 500 nM	< 500 nM	Cc1ncc(F)cc1-c1ccc2c(c1)N(S(=O)(=O)c1cccc(C(F)(F)F)c1)C[C@H](CCC(=O)O)O2 [Compound 4AF, (S)-3-(6-(5-fluoro-2-methylpyridin-3-yl)-4-((3-(trifluoromethyl)phenyl)sulfonyl)-3,4-dihydro-2H-benzo[b][1,4]oxazin-2-yl)propanoic acid]	**** (The symbol “****” indicates a value greater than 200)	** (The symbol “**” indicates a value in the range of greater than 90 to 150)
< 500 nM	< 500 nM	Cc1c(F)cccc1-c1ccc2c(c1)N(S(=O)(=O)c1cccc(C(F)(F)F)c1)C[C@H](CCC(=O)O)O2 [Compound 4AG, (S)-3-(6-(3-fluoro-2-methylphenyl)-4-((3-(trifluoromethyl)phenyl)sulfonyl)-3,4-dihydro-2H-benzo[b][1,4]oxazin-2-yl)propanoic acid]	**** (The symbol “****” indicates a value greater than 200)	** (The symbol “**” indicates a value in the range of greater than 90 to 150)
< 500 nM	< 500 nM	CCc1cccc(-c2ccc3c(c2)N(S(=O)(=O)c2cccc(C(F)(F)F)c2)C[C@H](CCC(=O)O)O3)c1 [Compound 4AH, (S)-3-(6-(3-ethylphenyl)-4-((3-(trifluoromethyl)phenyl)-sulfonyl)-3,4-dihydro-2H-benzo[b][1,4]oxazin-2-yl)propanoic acid]	**** (The symbol “****” indicates a value greater than 200)	** (The symbol “**” indicates a value in the range of greater than 90 to 150)
